Earlier results in PMC4136950 (Journal of peptide science : an official publication of the …, 2010).

How the values were obtained:
[1] = target: NR2A NMDA receptor subtype (co-expressed with NR1-2b) (Rattus norvegicus, UniProt P35439+Q00959); details: read-out: Approximate IC50, NR2A
[2] = target: NR2B NMDA receptor subtype (co-expressed with NR1-2b) (Rattus norvegicus, UniProt P35439+Q00960); details: read-out: Approximate IC50, NR2B
[3] = tested on: NMDA receptor subtypes NR2(A-D)
[4] = target: NR2D NMDA receptor subtype (co-expressed with NR1-2b) (Rattus norvegicus, UniProt P35439+Q62645); details: read-out: Approximate IC50, NR2D
Chain of NR2D NMDA receptor subtype (co-expressed with NR1-2b) (Q62645 28-1323, other chains not shown): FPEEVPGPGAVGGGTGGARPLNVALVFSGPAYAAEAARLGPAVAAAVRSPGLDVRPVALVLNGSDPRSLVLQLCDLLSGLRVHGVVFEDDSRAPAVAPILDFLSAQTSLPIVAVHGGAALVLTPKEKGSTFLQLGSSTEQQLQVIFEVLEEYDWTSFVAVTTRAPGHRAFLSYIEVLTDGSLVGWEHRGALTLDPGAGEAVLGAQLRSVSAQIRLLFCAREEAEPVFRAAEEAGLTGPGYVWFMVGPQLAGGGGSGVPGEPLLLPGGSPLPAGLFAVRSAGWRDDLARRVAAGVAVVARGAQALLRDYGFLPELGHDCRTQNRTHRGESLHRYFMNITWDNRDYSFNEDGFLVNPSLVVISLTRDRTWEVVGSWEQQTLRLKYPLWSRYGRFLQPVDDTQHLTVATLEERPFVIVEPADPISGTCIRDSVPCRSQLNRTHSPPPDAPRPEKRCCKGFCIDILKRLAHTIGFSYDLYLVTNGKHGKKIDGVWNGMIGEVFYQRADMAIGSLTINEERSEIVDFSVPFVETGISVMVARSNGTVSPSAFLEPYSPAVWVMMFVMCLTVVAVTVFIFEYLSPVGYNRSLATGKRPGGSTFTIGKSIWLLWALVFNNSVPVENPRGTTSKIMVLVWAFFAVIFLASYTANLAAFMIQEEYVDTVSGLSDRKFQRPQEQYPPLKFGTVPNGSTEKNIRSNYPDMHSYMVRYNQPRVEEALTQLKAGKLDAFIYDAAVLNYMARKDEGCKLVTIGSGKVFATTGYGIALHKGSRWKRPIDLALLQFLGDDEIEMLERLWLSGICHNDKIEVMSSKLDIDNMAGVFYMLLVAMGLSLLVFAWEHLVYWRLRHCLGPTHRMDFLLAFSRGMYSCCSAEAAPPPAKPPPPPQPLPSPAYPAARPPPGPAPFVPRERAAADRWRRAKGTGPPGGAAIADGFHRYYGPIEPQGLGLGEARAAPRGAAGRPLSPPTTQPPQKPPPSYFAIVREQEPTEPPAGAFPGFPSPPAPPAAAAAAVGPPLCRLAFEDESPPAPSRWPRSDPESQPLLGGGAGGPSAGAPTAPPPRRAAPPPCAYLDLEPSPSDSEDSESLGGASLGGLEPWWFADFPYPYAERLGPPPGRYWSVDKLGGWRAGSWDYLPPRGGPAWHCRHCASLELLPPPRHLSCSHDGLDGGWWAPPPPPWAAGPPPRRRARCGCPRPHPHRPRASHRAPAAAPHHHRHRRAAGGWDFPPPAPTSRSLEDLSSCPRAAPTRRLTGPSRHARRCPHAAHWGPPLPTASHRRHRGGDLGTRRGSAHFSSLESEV

[5] = target: NR2C NMDA receptor subtype (co-expressed with NR1-2b) (Rattus norvegicus, UniProt P35439+Q00961); details: read-out: Approximate IC50, NR2C
Chain of NR2C NMDA receptor subtype (co-expressed with NR1-2b) (Q00961 20-1237, other chains not shown): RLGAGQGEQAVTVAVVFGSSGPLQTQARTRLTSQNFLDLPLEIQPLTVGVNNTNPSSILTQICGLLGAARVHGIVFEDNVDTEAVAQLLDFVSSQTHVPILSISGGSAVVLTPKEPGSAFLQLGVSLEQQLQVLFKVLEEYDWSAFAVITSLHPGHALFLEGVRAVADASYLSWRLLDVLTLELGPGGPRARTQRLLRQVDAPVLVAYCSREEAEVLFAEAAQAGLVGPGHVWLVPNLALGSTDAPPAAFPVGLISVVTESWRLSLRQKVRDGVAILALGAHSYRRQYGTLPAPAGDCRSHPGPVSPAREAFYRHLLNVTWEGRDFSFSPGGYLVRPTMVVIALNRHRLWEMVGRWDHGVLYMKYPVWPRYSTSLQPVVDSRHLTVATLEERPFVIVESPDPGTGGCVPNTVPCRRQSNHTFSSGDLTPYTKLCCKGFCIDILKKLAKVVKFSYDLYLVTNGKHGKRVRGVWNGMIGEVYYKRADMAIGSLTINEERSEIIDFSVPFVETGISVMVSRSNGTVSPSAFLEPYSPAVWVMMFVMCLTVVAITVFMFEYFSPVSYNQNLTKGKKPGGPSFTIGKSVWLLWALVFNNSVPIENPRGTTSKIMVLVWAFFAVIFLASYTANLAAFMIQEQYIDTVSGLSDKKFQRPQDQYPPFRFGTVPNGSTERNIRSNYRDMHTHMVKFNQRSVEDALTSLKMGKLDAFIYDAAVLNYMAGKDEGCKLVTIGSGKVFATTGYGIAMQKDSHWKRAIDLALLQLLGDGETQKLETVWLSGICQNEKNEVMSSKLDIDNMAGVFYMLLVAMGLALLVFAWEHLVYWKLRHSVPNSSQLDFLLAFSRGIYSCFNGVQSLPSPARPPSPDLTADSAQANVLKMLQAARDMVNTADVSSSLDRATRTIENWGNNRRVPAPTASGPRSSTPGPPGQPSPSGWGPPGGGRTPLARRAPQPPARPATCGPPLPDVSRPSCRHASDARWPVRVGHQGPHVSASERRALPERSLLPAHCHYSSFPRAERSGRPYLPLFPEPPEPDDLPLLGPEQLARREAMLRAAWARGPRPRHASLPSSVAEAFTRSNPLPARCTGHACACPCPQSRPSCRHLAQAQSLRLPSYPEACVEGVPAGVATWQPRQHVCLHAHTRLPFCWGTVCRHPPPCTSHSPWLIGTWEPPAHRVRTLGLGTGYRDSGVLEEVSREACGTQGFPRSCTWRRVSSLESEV

Chain of NR2B NMDA receptor subtype (co-expressed with NR1-2b) (Q00960 27-1482, other chains not shown): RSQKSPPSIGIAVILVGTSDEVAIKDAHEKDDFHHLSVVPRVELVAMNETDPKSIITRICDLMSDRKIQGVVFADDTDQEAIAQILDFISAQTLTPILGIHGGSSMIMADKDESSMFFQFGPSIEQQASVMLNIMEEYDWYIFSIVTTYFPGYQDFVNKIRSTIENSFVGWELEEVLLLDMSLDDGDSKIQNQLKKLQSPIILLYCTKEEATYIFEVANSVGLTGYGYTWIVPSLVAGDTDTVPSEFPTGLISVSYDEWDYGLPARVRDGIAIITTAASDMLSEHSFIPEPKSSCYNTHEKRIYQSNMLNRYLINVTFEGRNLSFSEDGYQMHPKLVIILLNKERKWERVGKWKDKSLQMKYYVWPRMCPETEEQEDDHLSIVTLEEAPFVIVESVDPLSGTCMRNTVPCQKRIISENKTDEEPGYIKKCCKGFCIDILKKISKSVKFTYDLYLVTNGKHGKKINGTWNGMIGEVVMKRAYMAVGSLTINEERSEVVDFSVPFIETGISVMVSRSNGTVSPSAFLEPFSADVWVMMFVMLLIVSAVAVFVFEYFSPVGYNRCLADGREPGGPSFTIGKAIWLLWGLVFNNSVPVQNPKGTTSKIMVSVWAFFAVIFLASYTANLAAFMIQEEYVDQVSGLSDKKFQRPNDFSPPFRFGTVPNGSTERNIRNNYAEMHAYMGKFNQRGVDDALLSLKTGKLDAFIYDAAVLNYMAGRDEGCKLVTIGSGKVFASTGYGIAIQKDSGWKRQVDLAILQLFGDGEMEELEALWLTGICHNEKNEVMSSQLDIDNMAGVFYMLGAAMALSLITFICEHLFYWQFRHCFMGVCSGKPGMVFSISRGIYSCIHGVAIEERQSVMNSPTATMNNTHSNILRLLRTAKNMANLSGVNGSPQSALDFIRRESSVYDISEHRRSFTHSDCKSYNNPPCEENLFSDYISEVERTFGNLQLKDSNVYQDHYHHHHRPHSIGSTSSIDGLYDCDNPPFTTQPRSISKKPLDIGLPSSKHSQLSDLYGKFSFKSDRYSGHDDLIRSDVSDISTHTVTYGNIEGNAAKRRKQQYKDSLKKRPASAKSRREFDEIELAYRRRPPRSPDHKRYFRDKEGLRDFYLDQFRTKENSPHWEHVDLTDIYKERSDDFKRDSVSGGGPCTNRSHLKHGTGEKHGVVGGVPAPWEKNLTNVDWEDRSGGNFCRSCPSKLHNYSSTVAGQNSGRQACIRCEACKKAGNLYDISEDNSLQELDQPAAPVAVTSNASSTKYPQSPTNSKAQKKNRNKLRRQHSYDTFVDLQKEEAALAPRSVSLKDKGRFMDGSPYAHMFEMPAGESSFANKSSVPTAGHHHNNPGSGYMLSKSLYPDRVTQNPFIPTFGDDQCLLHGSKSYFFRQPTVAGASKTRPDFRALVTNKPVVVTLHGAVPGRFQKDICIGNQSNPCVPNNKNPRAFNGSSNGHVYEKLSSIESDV

In the case of GDγγ YSK FIγ RERγ AGR LDLSKFP^^ [ConBr], the IC50 [1] is listed as 680 nM, the IC50 [2] is listed as 140 nM and the “antagonism of NMDA receptor subtypes” value [3] is listed as “known antagonist of the NR2B and NR2D NMDA receptor subtypes”. For the same substance, the IC50 [4] was 310 nM and the IC50 [5] was 4900 nM.
